Assay results published in patent publication US9028845B2, “Chimeric immunomodulatory compounds and methods of using the same-IV” (Dynavax Technologies Corporation, priority 2001, dated 2015).
Marks after values point to notes of the source that are not given here.

Columns and labels:
[1] = Water solubility of spacer precursor (dialcohol form); type: physicochemical; conditions: tested as dialcohol precursor of the dodecyl spacer
From the text: Thus, the definition of spacers excludes microcarriers or nanocarriers. […] The form of the spacer moiety used for testing its water solubility is generally its most closely related unactivated and unprotected spacer precursor molecule. For example, C-19 contains a spacer moiety including a dodecyl group with phosphorothioate diester linkages at the C-1 and C-12 positions, thereby connecting the spacer moiety to the nucleic acid moieties. […] These higher water solubility spacers include, without limitation, propane 1,3 diol; glycerol; butane-1,4-diol; pentane-1,5-diol; hexane-1,6-diol; triethylene glycol, tetraethylene glycol and HEG.

CD19+ B cells = assay: Human B cell proliferation assay (3H-thymidine incorporation); conditions: 2 μg/ml; for cpm1 / cpm2 / cpm3 / mean cpm / mean of both: B cells
mice = assay: Serum cytokines (IL-12 p40, IL-6, TNF-α) after subcutaneous injection in mice; type: in vivo; conditions: 20 ug subcutaneous, blood 2 hours later
Description: Blood was collected 2 hours later. For the LPS positive control group, mice were injected intraperitoneally with a 200 ul volume, and blood was collected 1.5 hours later (i.e., at the peak of LPS induced TNF-α activity). The blood was clotted and the serum was prepared and stored at −80° C. until assayed. Serum cytokines were assayed using Biosource cytoscreen kits for TNF-α and Pharmingen antibody pairs for mIL-6 and mIL-12. All samples were assayed in duplicate.

PBMCs = assay: Human PBMC proliferation assay (3H-thymidine incorporation); type: cell-based; conditions: Experiment A; for mean cpm: 2 μg/ml
mouse lung = assay: Induction of immune-associated genes in the mouse lung after intranasal treatment (quantitative PCR); type: in vivo, BALB/c mice; conditions: 20 ug intranasal, 6 hrs
Description: The genes evaluated included genes encoding cytokines, chemokines, cell surface molecules, transcription factors, metalloproteases, and other molecules. The study was performed at Northview Pacific Laboratories (Hercules, Calif.) with 6-8 week old female BALB/c mice from Jackson Labs (Bar Harbor, Me.). […] Therefore, at 6 hrs the lungs were harvested and snap-frozen in liquid nitrogen and stored at −80° C. for later use. Total RNA was isolated using RNeasy mini kits (Qiagen Inc., Valencia, Calif.). The RNA samples were DNAse-treated (Roche Diagnostics, Mannheim, Germany) and converted into cDNA using Superscript II Rnase H-Reverse Transcriptase (Invitrogen, Rockville Md.) as described in Scheerens et al., 2001, Eur. J. of Immunology 31:1465-74. The cDNA samples were pooled per group and in each pooled sample the expression of mRNA of 75 genes was measured using real-time quantitative PCR (ABI Prism 5700, Perkin Elmer Applied Biosystems) and syber green (Qiagen Inc.). In addition to the genes of interest, in each sample the mRNA expression of a housekeeping gene was measured (HPRT or ubiquitin). In order to correct for the amount of RNA in each sample, all data were calculated relative to the expression of the housekeeping gene.

[2] = tested on: hepatitis B surface antigen (HBsAg); conditions: in vivo
human PBMCs = assay: Human PBMC cytokine response assay (IFN-γ and IFN-α in cell-free medium by ELISA), with or without cPLGA; type: cell-based;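 as to IFN-α (pg/ml) mean: 20 µg/mL compound for 24 hours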;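 as to IFN-γ (pg/ml) mean: 20 µg/mL compound for 24 hours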
[3] = donor 28066, 20 ug/ml, 24 h, + PLGA = premixed with 100 μg/ml cPLGA
[4] = donor 28067, 20 ug/ml, 24 h, + PLGA = premixed with 100 μg/ml cPLGA
[5] = donor 28068, 20 ug/ml, 24 h, + PLGA = premixed with 100 μg/ml cPLGA
[6] = mean of Donors 1-2, 20 μg/ml, 24 h
[7] = mean of Donors 9-12, 20 μg/ml, 24 h
[8] = mean of donors 28065-28068, 20 ug/ml, 24 h, + PLGA = premixed with 100 μg/ml cPLGA
[9] = mean of donors 28185-28188, Table 15

OCCCCCCCCCCCCO [1,12-dihydroxydodecane]
solubility [1]: < 5000 µg/mL

5′-TCGTCGA-3′- C3-5′-ACGTTCG-3′-C3-5′-AGATGAT-3′ [Compound C-9]
B cell proliferation, in words (CD19+ B cells; 48 h plus 8 h 3H-thymidine pulse): cause B cells to proliferate
cpm1 (CD19+ B cells; Donor 146, Experiment A): 35365 cpm
cpm2 (CD19+ B cells; Donor 146, Experiment A): 42705 cpm
cpm3 (CD19+ B cells; Donor 146, Experiment A): 45231 cpm
mean cpm (CD19+ B cells; Donor 146 mean, Experiment A): 41100 cpm
cpm1 (CD19+ B cells; Donor 147, Experiment A): 55543 cpm
cpm2 (CD19+ B cells; Donor 147, Experiment A): 49035 cpm
cpm3 (CD19+ B cells; Donor 147, Experiment A): 44985 cpm
mean cpm (CD19+ B cells; Donor 147 mean, Experiment A): 49854 cpm
cpm1 (CD19+ B cells; donor 121, Experiment B): 21938 cpm
cpm2 (CD19+ B cells; donor 121, Experiment B): 35400 cpm
cpm3 (CD19+ B cells; donor 121, Experiment B): 23877 cpm
mean cpm (CD19+ B cells; donor 121 mean, Experiment B): 27072 cpm
cpm1 (CD19+ B cells; donor 194, Experiment B): 13660 cpm
cpm2 (CD19+ B cells; donor 194, Experiment B): 16717 cpm
cpm3 (CD19+ B cells; donor 194, Experiment B): 17866 cpm
mean cpm (CD19+ B cells; donor 194 mean, Experiment B): 16081 cpm
mean of both (CD19+ B cells; mean of Donors 146 and 147, Experiment A): 45477 cpm
mean of both (CD19+ B cells; mean of donors 121 and 194, Experiment B): 21576 cpm
induction of serum IL-12 p40, IL-6 and TNF-α, in words (mice): induced IL-12 p40, IL-6, and TNF-α
cpm1 (PBMCs; Donor 146, 2 μg/ml): 55348 cpm
cpm2 (PBMCs; Donor 146, 2 μg/ml): 24857 cpm
cpm3 (PBMCs; Donor 146, 2 μg/ml): 39953 cpm
mean cpm (PBMCs; Donor 146 mean): 40053 cpm
cpm1 (PBMCs; Donor 147, 2 μg/ml): 88106 cpm
cpm2 (PBMCs; Donor 147, 2 μg/ml): 65413 cpm
cpm3 (PBMCs; Donor 147, 2 μg/ml): 90665 cpm
mean cpm (PBMCs; Donor 147 mean): 81395 cpm
mean of both (PBMCs; mean of Donors 146 and 147, 2 μg/ml): 60724 cpm
mRNA expression of IFN-alpha in the lung, in words (mouse lung): considerably higher mRNA expression of IFN-alpha
mRNA expression of immune-associated genes in the lung, in words (mouse lung; vs P-7 treated mice): potently induce the expression of a variety of genes
Anti-HBsAg (mIU/ml) post-first, Mean [2]: 68 mIU/ml
Anti-HBsAg (mIU/ml) post-second, Mean [2]: 4135** mIU/ml
IFN-α (pg/ml) Donor 1 (human PBMCs; Donor 1, 20 μg/ml, 24 h): 142 pg/mL
IFN-γ (pg/ml) Donor 1 (human PBMCs; Donor 1, 20 μg/ml, 24 h): 2157 pg/mL
IFN-α (pg/ml) Donor 2 (human PBMCs; Donor 2, 20 μg/ml, 24 h): 0 pg/mL
IFN-γ (pg/ml) Donor 2 (human PBMCs; Donor 2, 20 μg/ml, 24 h): 171 pg/mL
IFN-α Donor 9 (human PBMCs; Donor 9, 20 μg/ml, 24 h): 8
IFN-γ Donor 9 (human PBMCs; Donor 9, 20 μg/ml, 24 h): 134
IFN-α Donor 10 (human PBMCs; Donor 10, 20 μg/ml, 24 h): 10
IFN-γ Donor 10 (human PBMCs; Donor 10, 20 μg/ml, 24 h): 7
IFN-α Donor 11 (human PBMCs; Donor 11, 20 μg/ml, 24 h): 1
IFN-γ Donor 11 (human PBMCs; Donor 11, 20 μg/ml, 24 h): 56
IFN-α Donor 12 (human PBMCs; Donor 12, 20 μg/ml, 24 h): 15
IFN-γ Donor 12 (human PBMCs; Donor 12, 20 μg/ml, 24 h): 30
IFN-α (human PBMCs; Table 9, donor 28089): 10 pg/mL
IFN-γ (human PBMCs; Table 9, donor 28089): 12 pg/mL
IFN-α (human PBMCs; Table 9, donor 28090): 67 pg/mL
IFN-γ (human PBMCs; Table 9, donor 28090): 7 pg/mL
IFN-α mean (human PBMCs; Table 9, mean of donors): 39 pg/mL
IFN-γ mean (human PBMCs; Table 9, mean of donors): 10 pg/mL
IFN-α (human PBMCs; Table 11, donor 28042): 39 pg/mL
IFN-γ (human PBMCs; Table 11, donor 28042): 691 pg/mL
IFN-α (human PBMCs; Table 11, donor 28043): 0 pg/mL
IFN-γ (human PBMCs; Table 11, donor 28043): 268 pg/mL
IFN-α (human PBMCs; Table 11, donor 28044): 11 pg/mL
IFN-γ (human PBMCs; Table 11, donor 28044): 590 pg/mL
IFN-α (human PBMCs; Table 11, donor 28045): 64 pg/mL
IFN-γ (human PBMCs; Table 11, donor 28045): 1306 pg/mL
IFN-α mean (human PBMCs; Table 11, mean of donors): 29 pg/mL
IFN-γ mean (human PBMCs; Table 11, mean of donors): 714 pg/mL
IFN-α (human PBMCs; Table 13, donor 28156): 26 pg/mL
IFN-γ (human PBMCs; Table 13, donor 28156): 1162 pg/mL
IFN-α (human PBMCs; Table 13, donor 28157): 142 pg/mL
IFN-γ (human PBMCs; Table 13, donor 28157): 729 pg/mL
IFN-α (human PBMCs; Table 13, donor 28158): 78 pg/mL
IFN-γ (human PBMCs; Table 13, donor 28158): 192 pg/mL
IFN-α (human PBMCs; Table 13, donor 28159): 20 pg/mL
IFN-γ (human PBMCs; Table 13, donor 28159): 329 pg/mL
IFN-α mean (human PBMCs; Table 13, mean of donors): 67 pg/mL
IFN-γ mean (human PBMCs; Table 13, mean of donors): 603 pg/mL
IFN-γ (pg/ml) 28065 (human PBMCs; donor 28065 (high background), 20 ug/ml, 24 h, + PLGA = premixed with 100 μg/ml cPLGA, 1000 = outside assay limits): 1000 pg/mL
IFN-α (pg/ml) 28065 (human PBMCs; donor 28065, 20 ug/ml, 24 h, + PLGA = premixed with 100 μg/ml cPLGA): 13 pg/mL
IFN-α (pg/ml) 28066 (human PBMCs; [3]): 0 pg/mL
IFN-γ (pg/ml) 28066 (human PBMCs; [3]): 8 pg/mL
IFN-α (pg/ml) 28067 (human PBMCs; [4]): 22 pg/mL
IFN-γ (pg/ml) 28067 (human PBMCs; [4]): 57 pg/mL
IFN-α (pg/ml) 28068 (human PBMCs; [5]): 64 pg/mL
IFN-γ (pg/ml) 28068 (human PBMCs; [5]): 510 pg/mL
IFN-a (human PBMCs; donor 28185, Table 15): 25 pg/mL
IFN-g (human PBMCs; donor 28185, Table 15): 189 pg/mL
IFN-a (human PBMCs; donor 28186, Table 15): 16 pg/mL
IFN-g (human PBMCs; donor 28186, Table 15): 24 pg/mL
IFN-a (human PBMCs; donor 28187, Table 15): 4 pg/mL
IFN-g (human PBMCs; donor 28187, Table 15): 95 pg/mL
IFN-a (human PBMCs; donor 28188, Table 15): 146 pg/mL
IFN-g (human PBMCs; donor 28188, Table 15): 11 pg/mL
IFN-α (pg/ml) mean (human PBMCs; [6]): 71 pg/mL
IFN-γ (pg/ml) mean (human PBMCs; [6]): 1164 pg/mL
IFN-α mean (human PBMCs; [7]): 8
IFN-γ mean (human PBMCs; [7]): 56
IFN-α (pg/ml) mean (human PBMCs; [8]): 25 pg/mL
IFN-γ (pg/ml) mean (human PBMCs; [8]): 394 pg/mL
IFN-a (pg/ml) mean (human PBMCs; [9]): 48 pg/mL
IFN-g (pg/ml) mean (human PBMCs; [9]): 80 pg/mL
IFN-a (pg/ml) ×2 (human PBMCs; mean ×2, Table 15): 95 pg/mL
IFN-g (pg/ml) ×4 (human PBMCs; mean ×4, Table 15): 319 pg/mL
